These compounds were tested against T1, HCV NS3/4A protease complex, BMS strain (genotype 1a) (UniProt P27958, C1454S/C1711G, species not given/STRAIN_BMS) (assay: Recombinant HCV NS3/4A protease complex FRET peptide assay, BMS strain). Conditions: NS3/4A BMS strain; activity range symbols.
T1 construct: b1001: DNA encoding the recombinant HCV NS3/4A protease complex (amino acids 1027 to 1711) ... a three-lysine solubilizing tail was added at the 3′-end of the NS4A coding region; fused on or other part: Three-lysine solubilising tail at the C-terminus of NS4A; A His tag is implied by the pET21b vector and Ni-NTA purification
Format: biochemical
Method in brief: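 Recombinant NS3/4A (aa 1027–1711) from H77C, J4L6S or BMS strains, with C1454S and C1711G mutations and three-lysine tail, expressed in E. coli and Ni-NTA/gel-filtration purified to >90%. Inhibition of cleavage of a FRET peptide substrate measured.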
With `COc1ccc2c(OC3CC4C(=O)NC5(C(=O)NS(=O)(=O)C6CC6)CC5C=CCCCCCC(NC(=O)N5CCCC5)C(=O)N4C3)nccc2c1` (centres unmarked) [Compound 60] the IC50 was < 50 nM.
For `CC1(OC(=O)N[C@H]2CCCCC/C=C\[C@@H]3C[C@@]3(C(=O)NS(=O)(=O)C3CC3)NC(=O)[C@@H]3C[C@@H](Oc4nccc5ccccc45)CN3C2=O)CCC1` [Compound 56, [(Z)-(1S,4R,14S,18R)-4-cyclopropanesulfonylaminocarbonyl-18-(isoquinolin-1-yloxy)-2,15-dioxo-3,16-diaza-tricyclo[14.3.0.0^4,6]nonadec-7-en-14-yl]-carbamic acid 1-methyl-cyclobutyl ester], the IC50 was < 50 nM.
In the case of `COc1ccc2c(OC3CC4C(=O)NC5(C(=O)NS(=O)(=O)C6CC6)CC5C=CCCCSCC(NC(=O)OCC(C)(C)C)C(=O)N4C3)nccc2c1` (centres unmarked) [Compound 75], the IC50 is reported as < 50 nM.
`COc1ccc2c(OC3CC4C(=O)NC5(C(=O)NS(=O)(=O)C6CC6)CC5C=CCOCCCC(NC(=O)NC(C)(C)C)C(=O)N4C3)nccc2c1` (centres unmarked) [Compound 34] was tested, and the IC50 was < 50 nM.
In the case of `CS(=O)(=O)NC1CCCCCC=CC2CC2(C(=O)NS(=O)(=O)C2CC2)NC(=O)C2CC(Oc3nccc4ccccc34)CN2C1=O` (centres unmarked) [Compound 25], the IC50 is reported as < 50 nM.

— patent publication US7173004B2, “Macrocyclic isoquinoline peptide inhibitors of hepatitis C virus” (Bristol-Myers Squibb Company, priority 2003, dated 2007)
